Test results reported in US10457707B2, “Substituted urea depsipeptide analogs as activators of the CLPP endopeptidase” (priority 2015, dated 2019).
≈ marks a conversion by molar mass, not a printed value. Like-named read-outs stand apart in the source and are kept apart here. *1 amine or outer side, *2 acyl side, *3 side chain or, on linkers, in order; H or OH if unused. Where a SMILES comes first, the peptide text is derived from it. Bridges are numbered along the chain shown (N, C = ends). [ ]: non-standard residue; d: D form. The star is where a group is joined. ξ: configuration not given here. Piperazine(2S-CO,4-Me) = CN1CCN[C@H](C(=O)O)C1; Phe(3,5-F2) = N[C@@H](Cc1cc(F)cc(F)c1)C(=O)O; NH(1-Me-indolin-5-yl) = CN1CCc2cc(N*)ccc21; NH(4-OCF3-phenyl) = FC(F)(F)Oc1ccc(N*)cc1; Morpholine(3S-CO) = O=C(O)[C@@H]1COCCN1; Pro(4S-Me) = C[C@@H]1CN[C@H](C(=O)O)C1; NH(4-Cl-2-F-phenyl) = Fc1cc(Cl)ccc1N*; Pro(4R-Me) = C[C@H]1CN[C@H](C(=O)O)C1; NMeaThr = CN[C@H](C(=O)O)[C@H](C)O; Hyp = O=C(O)[C@@H]1C[C@@H](O)CN1; NH(4-Et-phenyl) = CCc1ccc(N*)cc1; NH(4-Me-phenyl) = Cc1ccc(N*)cc1; ξNMeThr = CNC(C(=O)O)[C@@H](C)O; aThr = C[C@H](O)[C@H](N)C(=O)O; NMeA = CN[C@@H](C)C(=O)O; CO = O=C([*:1])[*:2]; ξP = O=C(O)C1CCCN1

Experiments:
Type in all cases: cell-based
[1] = test system: Enterococcus faecalis, ATCC 33186; experiment: Minimal inhibitory concentration assay (microbroth dilution)
Summary of the method: (§1)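 Compound is serially diluted two-fold in the appropriate broth, and bacterial inoculum at about 10^5 cfu/mL is added so the highest final concentration is 200 μM. Plates stay overnight at 37 °C under aerobic conditions before growth is scored by eye.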

[2] = Cytotoxicity assay (CellTiter-Glo cell viability, 72 hours); settings: African green monkey
Summary of the method: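 Viability measured by CellTiter-Glo luminescence after 72-hour compound exposure (serial dilutions, DMSO control) of Vero monolayers seeded at 5000 cells/well in 10% FBS DMEM. IC50 values are the range of two biologically independent experiments, each run in duplicate.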

[3] = test system: Streptococcus pneumoniae, R6; experiment: Minimal inhibitory concentration assay; settings: read-out: Minimal Inhibitory Concentrations S. pneumoniae R6
Summary of the method: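 Microbroth dilution with two-fold serial compound dilutions in broth, incubated aerobically overnight at 37° C. MIC taken as the lowest concentration preventing bacterial growth.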

[4] = test system: Staphylococcus aureus, USA 300 wherein ClpP is inactivated; experiment: Minimal inhibitory concentration assay
Summary of the method: as §1

[5] = test system: Staphylococcus aureus, USA 300; experiment: Minimal inhibitory concentration assay; settings: USA300, read-out: Minimal Inhibitory Concentrations S. aureus USA 300
Summary of the method: as §1

[6] = Enterococcus faecalis, ATCC33186; read-out: Minimal Inhibitory Concentrations E. faecalis ATCC 33186
[7] = Enterococcus faecalis, ATCC33186, read-out: Minimal Inhibitory Concentrations E. faecalis ATCC 33186
[8] = Vero cells, 72 hours, growth inhibition, read-out: Cytotoxicity IC50

SMILES | MIC [1, 6] [µM] | IC50 at 72 h [2] [µM] | MIC [3] [µM] | MIC ([1]; E. faecalis ATCC 33186; read-out: Minimal Inhibitory Concentrations E. faecalis ATCC 33186) [µM] | MIC [1, 7] [µM] | IC50 at 72 h [2, 8] [µM] | Minimal Inhibitory Concentrations S. aureus USA 300 ΔClpP [4] [µM] | MIC [5] [µM]
C[C@@H]1NC(=O)[C@H](C)N(C)C(=O)[C@@H]2CCCN2C(=O)[C@@H](NC(=O)[C@H](Cc2ccccc2)NC(=O)Nc2ccc(OC(F)(F)F)cc2)COC(=O)C2CCCN2C1=O (stereo partly drawn) [Compound 213, (2S)-3-phenyl-2-(3-(4-(trifluoromethoxy)phenyl)ureido)-N-((6S,9S,11aS,17S)-6,9,10-trimethyl-5,8,11,16,20-pentaoxohexadecahydro-1H,5H,16H-dipyrrolo[2,1-c:2′,1′-l][1]oxa[4,7,10,13]tetraazacyclohexadecin-17-yl)propanamide] ({NH(4-OCF3-phenyl)-CO}-FSP[NMeA]A[ξP]; ester 2-C) | 0.39 (≈ 0.307 µg/mL) | 51.8 ± 1 | < 0.2 | – | – | – | – | –
C[C@@H]1C[C@H]2C(=O)OC[C@H](NC(=O)[C@H](Cc3ccccc3)NC(=O)Nc3ccc(OC(F)(F)F)cc3)C(=O)N3CCC[C@H]3C(=O)N3CCCC[C@H]3C(=O)N[C@@H](C)C(=O)N2C1 [Compound 205] | – | 88.3 ± 15.2 | 0.2 (≈ 0.166 µg/mL) | 0.02 (≈ 0.0166 µg/mL) | – | – | – | –
Cc1ccc(NC(=O)N[C@@H](Cc2cc(F)cc(F)c2)C(=O)N[C@H]2COC(=O)[C@@H]3C[C@@H](C)CN3C(=O)[C@H](C)NC(=O)C([C@@H](C)O)N(C)C(=O)[C@@H]3CCCN3C2=O)cc1 (stereo partly drawn) [Compound 322, (S)-3-(3,5-difluorophenyl)-N-((2R,6S,9R,11aS,17S,20aS)-9-((R)-1-hydroxyethyl)-2,6,10-trimethyl-5,8,11,16,20-pentaoxohexadecahydro-1H,5H,16H-dipyrrolo[2,1-c:2′,1′-l][1]oxa[4,7,10,13]tetraazacyclohexadecin-17-yl)-2-(3-(p-tolyl)ureido)propanamide] ({NH(4-Me-phenyl)-CO}-[Phe(3,5-F2)]SP[ξNMeThr]A[Pro(4R-Me)]; ester 2-C) | – | – | 0.156 (≈ 0.124 µg/mL) | – | > 20 | 47.8 ± 3.2 | 0.625 | –
C[C@@H]1C[C@H]2C(=O)O[C@@H](C)[C@H](NC(=O)[C@H](Cc3cc(F)cc(F)c3)NC(=O)Nc3ccc4c(c3)CCN4C)C(=O)N3CCC[C@H]3C(=O)N3CCOC[C@H]3C(=O)N[C@@H](C)C(=O)N2C1 [Compound 312, (S)-3-(3,5-difluorophenyl)-2-(3-(1-methylindolin-5-yl)ureido)-N-((6aS,12S,13S,15aS,17R,21S,23aS)-13,17,21-trimethyl-6,11,15,20,23-pentaoxooctadecahydro-6H,11H,15H-[1,4]oxazino[3,4-i]dipyrrolo[2,1-c:2′,1′-l][1]oxa[4,7,10,13]tetraazacyclo-hexadecin-12-yl)propanamide] ({NH(1-Me-indolin-5-yl)-CO}-[Phe(3,5-F2)][aThr]P[Morpholine(3S-CO)]A[Pro(4R-Me)]; ester 2-C) | – | – | 0.078 (≈ 0.0664 µg/mL) | – | 0.039 (≈ 0.0332 µg/mL) | 2.87 | >20 | 0.156 (≈ 0.133 µg/mL)
Cc1ccc(NC(=O)N[C@@H](Cc2ccccc2)C(=O)N[C@H]2COC(=O)[C@@H]3C[C@@H](C)CN3C(=O)[C@H](C)NC(=O)[C@@H]3CCCCN3C(=O)[C@@H]3CCCN3C2=O)cc1C [Compound 206, (S)—N-((2R,6S,8aS,14aS,20S,23aS)-2,6-dimethyl-5,8,14,19,23-pentaoxooctadecahydro-1H,5H,14H,19H-pyrido[2,1-i]dipyrrolo[2,1-c:2′,1′-l][1]oxa[4,7,10,13]tetraazacyclohexadecin-20-yl)-2-(3-(3,4-dimethylphenyl)ureido)-3-phenylpropanamide] | – | – | < 0.2 | – | < 0.2 | 74 ± 7.7 | – | –
C[C@@H]1C[C@H]2C(=O)O[C@@H](C)[C@H](NC(=O)[C@H](Cc3cc(F)cc(F)c3)NC(=O)Nc3ccc(Cl)cc3F)C(=O)N3CCC[C@H]3C(=O)N3CCOC[C@H]3C(=O)N[C@@H](C)C(=O)N2C1 [Compound 314, (S)-2-(3-(4-chloro-2-fluorophenyl)ureido)-3-(3,5-difluorophenyl)-N-((6aS,12S,13S,15aS,17R,21S,23aS)-13,17,21-trimethyl-6,11,15,20,23-pentaoxooctadecahydro-6H,11H,15H-[1,4]oxazino[3,4-i]dipyrrolo[2,1-c:2′,1′-l][1]oxa[4,7,10,13]tetraazacyclo-hexadecin-12-yl)propanamide] ({NH(4-Cl-2-F-phenyl)-CO}-[Phe(3,5-F2)][aThr]P[Morpholine(3S-CO)]A[Pro(4R-Me)]; ester 2-C) | 0.039 (≈ 0.0331 µg/mL) | 2.39 ± 0.8 | < 0.02 | – | – | – | >20 | < 0.02
C[C@@H]1C[C@H]2C(=O)OC[C@H](NC(=O)[C@H](Cc3cc(F)cc(F)c3)NC(=O)Nc3ccc(Cl)cc3F)C(=O)N3CCC[C@H]3C(=O)N3CCN(C)C[C@H]3C(=O)N[C@@H](C)C(=O)N2C1 [Compound 330, (S)-2-(3-(4-chloro-2-fluorophenyl)ureido)-3-(3,5-difluorophenyl)-N-((6aS,12S,15aS,17R,21S,23aS)-2,17,21-trimethyl-6,11,15,20,23-pentaoxooctadecahydro-2H,6H,11H,15H-pyrazino[2,1-i]dipyrrolo[2,1-c:2′,1′-l][1]oxa[4,7,10,13]tetraazacyclohexadecin-12-yl)propanamide] ({NH(4-Cl-2-F-phenyl)-CO}-[Phe(3,5-F2)]SP[Piperazine(2S-CO,4-Me)]A[Pro(4R-Me)]; ester 2-C) | < 0.02 | > 50 | 0.039 (≈ 0.033 µg/mL) | – | – | – | >20 | 0.156 (≈ 0.132 µg/mL)
CCc1ccc(NC(=O)N[C@@H](Cc2cc(F)cc(F)c2)C(=O)N[C@@H]2C(=O)N3CCC[C@H]3C(=O)N(C)[C@@H]([C@H](C)O)C(=O)N[C@@H](C)C(=O)N3C[C@@H](C)C[C@H]3C(=O)O[C@H]2C)cc1 [Compound 204, (S)-3-(3,5-difluorophenyl)-2-(3-(4-ethylphenyl)ureido)-N-((2S,6S,9S,11aS,17S,18S,20aS)-9-((S)-1-hydroxyethyl)-2,6,10,18-tetramethyl-5,8,11,16,20-pentaoxohexadecahydro-1H,5H,16H-dipyrrolo[2,1-c:2′,1′-l][1]oxa[4,7,10,13]tetraazacyclohexadecin-17-yl)propanamide] ({NH(4-Et-phenyl)-CO}-[Phe(3,5-F2)][aThr]P[NMeaThr]A[Pro(4S-Me)]; ester 2-C) | 0.195 (≈ 0.161 µg/mL) | 33.8 ± 1.6 | 0.024 (≈ 0.0198 µg/mL) | – | – | – | 100 | 0.098 (≈ 0.0809 µg/mL)
C[C@@H]1C[C@H]2C(=O)O[C@@H](C)[C@H](NC(=O)[C@H](Cc3cc(F)cc(F)c3)NC(=O)Nc3ccc4c(c3)CCN4C)C(=O)N3CCC[C@H]3C(=O)N(C)C([C@@H](C)O)C(=O)N[C@@H](C)C(=O)N2C1 (stereo partly drawn) [Compound 311, (S)-3-(3,5-difluorophenyl)-N-((2R,6S,9R,11aS,17S,18S,20aS)-9-((R)-1-hydroxyethyl)-2,6,10,18-tetramethyl-5,8,11,16,20-pentaoxohexadecahydro-1H,5H,16H-dipyrrolo[2,1-c:2′,1′-l][1]oxa[4,7,10,13]tetraazacyclohexadecin-17-yl)-2-(3-(1-methylindolin-5-yl)ureido)propanamide] ({NH(1-Me-indolin-5-yl)-CO}-[Phe(3,5-F2)][aThr]P[ξNMeThr]A[Pro(4R-Me)]; ester 2-C) | – | – | 0.078 (≈ 0.0665 µg/mL) | – | 0.039 (≈ 0.0333 µg/mL) | 14.3 ± 0.3 | >20 | 0.156 (≈ 0.133 µg/mL)
Cc1ccc(NC(=O)N[C@@H](Cc2cc(F)cc(F)c2)C(=O)N[C@@H]2C(=O)N3C[C@H](O)C[C@H]3C(=O)N(C)[C@@H](C)C(=O)N[C@@H](C)C(=O)N3C[C@@H](C)C[C@H]3C(=O)O[C@H]2C)cc1 [Compound 214, (S)-3-(3,5-difluorophenyl)-N-((2S,6S,9S,11aS,13R,17S,18S,20aS)-13-hydroxy-2,6,9,10,18-pentamethyl-5,8,11,16,20-pentaoxohexadecahydro-1H,5H,16H-dipyrrolo[2,1-c:2′,1′-l][1]oxa[4,7,10,13]tetraazacyclohexadecin-17-yl)-2-(3-(p-tolyl)ureido)propanamide] ({NH(4-Me-phenyl)-CO}-[Phe(3,5-F2)][aThr][Hyp][NMeA]A[Pro(4S-Me)]; ester 2-C) | – | – | 0.195 (≈ 0.156 µg/mL) | – | 0.195 (≈ 0.156 µg/mL) | > 100 | >200 | 1.56 (≈ 1.24 µg/mL)
Cc1ccc(NC(=O)N[C@@H](Cc2cc(F)cc(F)c2)C(=O)N[C@H]2COC(=O)[C@@H]3C[C@@H](C)CN3C(=O)[C@H](C)NC(=O)[C@@H]3CCCCN3C(=O)[C@@H]3CCCN3C2=O)cc1C [Compound 207, (S)-3-(3,5-difluorophenyl)-N-((2R,6S,8aS,14aS,20S,23aS)-2,6-dimethyl-5,8,14,19,23-pentaoxooctadecahydro-1H,5H,14H,19H-pyrido[2,1-i]dipyrrolo[2,1-c:2′,1′-l][1]oxa[4,7,10,13]tetraazacyclohexadecin-20-yl)-2-(3-(3,4-dimethylphenyl)ureido)propanamide] | – | – | < 0.2 | – | < 0.2 | 31.1 ± 5.6 | – | –
